Laboratory results as given in ChEMBL document CHEMBL1821579, “Discovery of amide replacements that improve activity and metabolic stability of a bis-amide smoothened antagonist hit” (Bioorg Med Chem Lett, 2011).
The source made the active and inactive calls. The rule behind the calls is not given here.

Tests used:
Protein smoothened [1] = biological target: Protein smoothened (Homo sapiens, UniProt Q99835); experiment: Antagonist activity at human SMO expressed in HEPM cells assessed as reduction of GLI expression after 24 hrs by Quantigene assay; format: functional, cell-based
[2] = Clearance in rat liver microsomes assessed as compound metabolized after 30 mins; format: ADME, Microsome; settings: read-out: Activity
[3] = Clearance in rat at 0.5 mg/kg, iv; format: ADME, organism-based; set-up: dose 0.5 mg/kg, route intravenous; settings: in vivo
[4] = Oral bioavailability in rat at 5 mg/kg; format: ADME, organism-based; settings: in vivo
Protein smoothened [5] = biological target: Protein smoothened (Mus musculus, UniProt P56726); experiment: Antagonist activity at mouse SMO expressed in NIH/3T3 cells transfected with Gli-dependent luciferase-reporter after 15 hrs by luciferase reporter gene assay using luminometer; format: functional, cell-based
[6] = biological target: Protein smoothened (Rattus norvegicus) (UniProt P97698); experiment: Antagonist activity at SMO in rat hepatocyte; format: functional, cell-based
[7] = Metabolic stability in rat hepatocyte assessed as compound remaining at 30 mins; format: ADME, cell-based; settings: hepatocytes, read-out: Stability

Protein smoothened (Homo sapiens, UniProt Q99835), sequence (Q99835 whole entry): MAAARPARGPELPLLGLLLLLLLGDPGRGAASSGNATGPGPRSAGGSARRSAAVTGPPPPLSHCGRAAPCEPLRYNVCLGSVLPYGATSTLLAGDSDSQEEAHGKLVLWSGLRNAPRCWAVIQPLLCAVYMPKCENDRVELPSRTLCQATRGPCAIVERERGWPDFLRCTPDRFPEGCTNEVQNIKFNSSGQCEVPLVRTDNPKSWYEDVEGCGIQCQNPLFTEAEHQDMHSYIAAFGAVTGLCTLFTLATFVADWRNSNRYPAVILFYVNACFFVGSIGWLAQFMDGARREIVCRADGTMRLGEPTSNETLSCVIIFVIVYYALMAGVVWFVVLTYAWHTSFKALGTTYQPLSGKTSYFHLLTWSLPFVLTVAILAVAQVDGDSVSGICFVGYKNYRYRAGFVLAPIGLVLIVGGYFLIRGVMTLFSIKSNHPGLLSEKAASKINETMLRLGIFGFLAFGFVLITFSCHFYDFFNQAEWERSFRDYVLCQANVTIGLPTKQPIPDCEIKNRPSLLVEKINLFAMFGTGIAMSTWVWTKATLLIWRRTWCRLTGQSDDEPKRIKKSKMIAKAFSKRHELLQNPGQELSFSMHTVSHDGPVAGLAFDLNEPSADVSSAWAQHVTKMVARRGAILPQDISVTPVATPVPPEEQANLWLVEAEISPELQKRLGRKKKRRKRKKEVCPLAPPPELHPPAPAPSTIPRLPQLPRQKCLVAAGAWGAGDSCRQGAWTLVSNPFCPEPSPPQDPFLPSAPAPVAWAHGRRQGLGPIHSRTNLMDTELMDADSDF
Protein smoothened (Mus musculus, UniProt P56726), sequence (P56726 whole entry): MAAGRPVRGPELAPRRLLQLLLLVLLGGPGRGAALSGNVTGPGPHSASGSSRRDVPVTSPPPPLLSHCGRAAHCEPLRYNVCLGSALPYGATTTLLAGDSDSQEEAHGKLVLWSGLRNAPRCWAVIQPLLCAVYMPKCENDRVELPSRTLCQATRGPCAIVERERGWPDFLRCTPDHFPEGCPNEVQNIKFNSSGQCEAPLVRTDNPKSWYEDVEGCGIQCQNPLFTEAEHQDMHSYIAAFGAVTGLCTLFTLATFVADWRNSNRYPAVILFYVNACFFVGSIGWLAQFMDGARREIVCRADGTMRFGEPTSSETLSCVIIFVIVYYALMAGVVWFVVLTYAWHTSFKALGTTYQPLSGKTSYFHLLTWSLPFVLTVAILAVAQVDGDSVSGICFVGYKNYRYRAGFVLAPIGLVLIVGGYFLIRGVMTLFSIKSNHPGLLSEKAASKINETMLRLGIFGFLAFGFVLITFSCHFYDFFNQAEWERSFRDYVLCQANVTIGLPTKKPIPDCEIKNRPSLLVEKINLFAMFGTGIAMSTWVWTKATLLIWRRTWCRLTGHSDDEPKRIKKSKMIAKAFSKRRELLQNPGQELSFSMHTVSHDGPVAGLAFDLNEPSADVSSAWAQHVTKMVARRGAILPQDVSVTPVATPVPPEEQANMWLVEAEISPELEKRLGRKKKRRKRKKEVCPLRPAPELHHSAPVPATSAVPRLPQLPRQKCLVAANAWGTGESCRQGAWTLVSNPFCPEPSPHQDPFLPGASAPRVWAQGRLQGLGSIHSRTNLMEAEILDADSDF
Protein smoothened (Rattus norvegicus), sequence (P97698 whole entry): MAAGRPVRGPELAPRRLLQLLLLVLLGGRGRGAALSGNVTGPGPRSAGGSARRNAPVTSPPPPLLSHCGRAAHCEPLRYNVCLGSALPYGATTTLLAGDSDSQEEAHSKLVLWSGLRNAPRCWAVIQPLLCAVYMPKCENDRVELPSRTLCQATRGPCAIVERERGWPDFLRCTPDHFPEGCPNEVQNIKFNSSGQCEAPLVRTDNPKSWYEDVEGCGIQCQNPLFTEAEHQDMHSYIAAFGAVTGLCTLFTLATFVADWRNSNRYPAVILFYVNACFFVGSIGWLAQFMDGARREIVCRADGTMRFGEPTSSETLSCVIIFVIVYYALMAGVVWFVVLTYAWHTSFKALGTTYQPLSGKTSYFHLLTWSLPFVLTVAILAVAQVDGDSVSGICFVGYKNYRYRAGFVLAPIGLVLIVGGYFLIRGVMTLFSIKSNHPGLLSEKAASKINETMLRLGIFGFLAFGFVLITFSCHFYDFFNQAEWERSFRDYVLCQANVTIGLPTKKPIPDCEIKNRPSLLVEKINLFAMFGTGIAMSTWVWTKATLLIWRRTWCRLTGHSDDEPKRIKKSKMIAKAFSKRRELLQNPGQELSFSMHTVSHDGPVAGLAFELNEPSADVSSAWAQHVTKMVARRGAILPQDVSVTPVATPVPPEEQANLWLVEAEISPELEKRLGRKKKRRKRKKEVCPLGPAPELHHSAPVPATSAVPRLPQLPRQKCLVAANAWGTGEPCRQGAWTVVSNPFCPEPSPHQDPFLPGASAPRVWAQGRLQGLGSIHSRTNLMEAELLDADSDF

Row | IC50 (Protein smoothened [1]) [nM] | Structure (SMILES) | also measured
1 | 14 | O=C(Nc1ccc(CC(O)c2ccccc2)cc1)c1ccccc1Cl (racemic) | 
2 | 63 | O=C(Nc1ccc(-c2nc(-c3ccccc3)co2)cc1)c1ccccc1Cl | 
3 | 79 | O=C(Cc1ccc(NC(=O)c2ccccc2Cl)cc1)c1ccccc1 | 
4 | 28 | O=C(Nc1ccc(-c2cncc(-c3ccccc3)c2)cc1)c1ccccc1Cl | 
5 | 89 | O=C(Nc1ccc(-c2nnc(-c3ccccc3)o2)cc1)c1ccccc1Cl | 
6 | 37 | O=C(Nc1ccc(-c2nccc(-c3ccccc3)n2)cc1)c1ccccc1Cl | 
7 | 7.2 | O=C(Nc1ccc(-c2cc(-c3ccccc3)ccn2)cc1)c1ccccc1Cl | metabolised at 0.5 h [2]: 41%; clearance [3]: 2.83 mL/min/kg; bioavailability [4]: 27%; IC50 (Protein smoothened [5]): 26 nM
8 | 33 | O=C(Nc1ccc(-c2cccc(-c3ccccc3)n2)cc1)c1ccccc1Cl | 
9 | 109 | O=C(Nc1ccc(-c2csc(-c3ccccc3)n2)cc1)c1ccccc1Cl | 
10 | 93 | O=C(Nc1ccc(-c2ccnc(-c3ccccc3)c2)cc1)c1ccccc1Cl | 
11 | 27 | O=C(Nc1ccc(-c2ccnc(-c3ccccc3)n2)cc1)c1ccccc1Cl | 

The next lines start with the molecule.

Row | Structure (SMILES) | IC50 (Protein smoothened [1]) [nM] | also measured
12 | O=C(Nc1ccc(-c2cccc(-c3ccccc3)c2)cc1)c1ccccc1Cl | 6.4 | 
13 | Cc1oc(-c2ccc(NC(=O)c3ccccc3Cl)cc2)nc1-c1ccccc1 | 44 | 
14 | O=C(Nc1ccc(-c2coc(-c3ccccc3)n2)cc1)c1ccccc1Cl | 93 | 
15 | O=C(Nc1ccc(-c2nc(-c3ccccc3)c(C(F)(F)F)o2)cc1)c1ccccc1Cl | 31 | metabolised at 0.5 h [2]: < 10%; clearance [3]: 3.83 mL/min/kg; bioavailability [4]: 47%; IC50 (Protein smoothened [5]): 17 nM
16 | O=C(Nc1ccc(/C=C/c2ccccc2)cc1)c1ccccc1Cl | 49 | 
17 | CC(=O)Nc1ccc(NC(=O)c2ccccc2Cl)cc1 |  | inhibition [6]: inactive
18 | O=C(Nc1ccc(NC(=O)c2ccccc2Cl)cc1)c1ccccc1 | 13 | metabolised at 0.5 h [2]: < 10%; clearance [3]: 23.3 mL/min/kg; remaining at 0.5 h [7]: 3%; bioavailability [4]: 12%
19 | O=C(Nc1ccc(-c2cc(-c3ccccc3)ncn2)cc1)c1ccccc1Cl | 48 | 
20 | O=C(Nc1ccc(-c2ncc(-c3ccccc3)o2)cc1)c1ccccc1Cl | 40 | 
21 | O=C(Nc1ccc(-c2nc(-c3ccccc3)cs2)cc1)c1ccccc1Cl | 27 | 
